Measurements published in patent US20180042827A1, “METHOD OF PROTECTING SKIN FROM ULTRAVIOLET RADIATION” (FIC BIOTECH INC., priority 2016, published 2018).
Entries after “also recorded” stand apart in the source; their conditions may differ.

Columns and labels:
Type in all cases: cell-based, human
[1] = test system: HFF-1 cells (G6PD deficient skin fibroblast); assay: Intracellular ROS detection (DCF-DA fluorescence) after UVA irradiation; settings: 200 μM added prior to UVA irradiation (25, 50 and 100 KJ/cm^2)
Description: (§1) When cells were seeded in culture dish for overnight incubation, 200 μM of compound (I-1) was added to the cells for 2 hours before UVA irradiation.
(§2) Reactive oxygen species (ROS) fluorescent dye: when 10 μM of 2′,7′-dichlorodihydrofluorescindiacetate (DCF-DA) enters the cells, DCF trapped is oxidized by the ROS and emits fluorescent light (excitation light: 488 nm, scattered light: 525 nm).
(§3) HFF-3 and HFF-1 cells were cultivated and irradiated with various dosages of UVA (25, 50 and 100 KJ/cm^2). The culture medium was then replaced with new medium and treated with 10 μM of DCF-DA probe for 30 minutes at 37° C. in the dark. Cells were detached by trypsinization, collected by centrifugation and resuspended in PBS. The intracellular ROS, as reflected by the DCF green fluorescence, were then observed using laser scanning confocal microscope.

HFF-3 cells [2] = assay: as above; settings: 200 μM added prior to UVA irradiation (25, 50 and 100 KJ/cm^2)
Description: as §1, §2, §3

[3] = test system: HFF1 cells (G6PD deficient skin fibroblast); assay: Intracellular lipid peroxidation (C11-BODIPY 581/591 fluorescence) after UVA irradiation; settings: pretreated, 50 KJ/m^2 UVA, versus only UVA-treated cells
Description: as §1
(§4) When the ROS attacks the C11-BODIPY^581/591 on the cell membrane, it will emit fluorescent light (excitation light: 488 nm, scattered light: 510-665 nm).
(§5) After treating 10 μM C11-BODIPY^581/591 for 30 minutes at 37° C., the cells were washed with HEPES buffer (4-(2-hydroxyerhyl)-piperazine-1-erhanesulfonic acid, HEPES) and were observed by using the laser scanning confocal microscope.

HFF3 cells = assay: as above; settings: pretreated, 50 KJ/m^2 UVA, versus only UVA-treated cells
Description: as §1, §4, §5

[4] = test system: HFF-1 cells (G6PD deficient skin fibroblast); assay: Intracellular glutathione (GSH) depletion (CMF-DA fluorescence) after UVA irradiation; settings: 200 μM added prior to UVA irradiation (25, 50 and 100 KJ/cm^2)
Description: as §1
(§6) Glutathione (GSH) fluorescent dye: 10 μM of 5-chloromethyl fluorescein diacetate (CMF-DA). When CMF-DA enters the cells, the trapped CMF reacts with the GSH to form a fluorescent compound which to emit fluorescent light (excitation light: 492 nm, scattered light: 517 nm).
as §3, with “[…] CMF-DA” for “10 μM of DCF-DA”, “GSH contents,” for “ROS,”, “the” for “the DCF”, “fluorescence intensity of CMF-GSH,” for “fluorescence,”

HFF-3 cells [5] = assay: as above; settings: 200 μM added prior to UVA irradiation (25, 50 and 100 KJ/cm^2)
Description: as §1, §6
as §3, with “[…] CMF-DA” for “10 μM of DCF-DA”, “GSH contents,” for “ROS,”, “the” for “the DCF”, “fluorescence intensity of CMF-GSH,” for “fluorescence,”

[6] = test system: HFF-1 cells (G6PD deficient skin fibroblast); assay: Calcium detection of cytoplasm and mitochondria (Fluo-4 / Rhod-2) after UVA irradiation; settings: 200 μM added prior to UVA (50 KJ/cm^2)
Description: as §1
(§7) Calcium mobilization detection dye: 1.5 μM of RHOD-2/AM (rhod-2) is a cell-permeable fluorescent probe for measuring calcium (Ca^2+) in mitochondria (excitation light: 543 nm, scattered light: 581 nm), and 2 μM of FLUO-4/AM (fluo-4) is a cell-permeable fluorescent probe for measuring calcium (Ca^2+) in cytoplasm (excitation light: 488 nm, scattered light: 516 nm).
(§8) HFF-3 and HFF-1 cells were cultivated and irradiated with UVA (50KJ/cm^2). The culture medium was then replaced with new medium and treated with 2 μM Flou-4 and 1.5 μM of Rhod-2 (for the detection of mitochondrial calcium) for 30 minutes at 37° C. in the dark. Rhod-2 is a cationic rhodamine-based indicator probe and it can accumulate preferentially in potential-driven uptake in mitochondria. The resting mitochondrial calcium concentration is generally in the range of 100-150 nM. At this level of calcium, the brownish red fluorescence of Rhod-2 is minimal. However, when large excess of calcium ions are uptaken by the mitochondria, concentration-dependent increases in the intensities of Rhod-2 fluorescence will occur. The phenomenon is a testimony of mitochondrial calcium overload.

HFF-3 cells [7] = assay: as above; settings: 200 μM added prior to UVA (50 KJ/cm^2)
Description: as §1, §7, §8

[8] = test system: HFF-1 cells (G6PD deficient skin fibroblast); assay: TUNEL analysis of apoptotic cell death after UVA irradiation; settings: 200 μM added prior to UVA (50 KJ/cm^2), UVA alone ca 80%
Description: as §1
(§9) Apoptotic cell death was assayed by using an Apo-BrdU in situ DNA fragmentation assay kit. This kit measures the fragmented DNA of apoptotic cells by catalytically incorporating fluorescein-12-dUTP at 3′-OH DNA ends using the terminal deoxynucleotidyl transferase enzyme. The fluorescein-12-dUTP-labeled DNA can then be visualized by confocal scanning microscope and quantified by using software.

HFF-3 cells [9] = assay: as above; settings: 200 μM added prior to UVA (50 KJ/cm^2), UVA alone ca 40%
Description: as §1, §9

COC(=O)c1cc(O)c(O)c(O)c1 [compound (I-1), methyl gallate]
production of intracellular ROS (DCF fluorescence) [1]: almost completely suppressed; also recorded: nearly complete suppression of ROS production
production of intracellular ROS (DCF fluorescence) (HFF-3 cells [2]): almost completely suppressed
intracellular lipid peroxidation (green fluorescent intensity of C11-BODIPY 581/591) [3]: weaker than that of the only UVA-treated cells; also recorded: significant decline of green fluorescence
intracellular lipid peroxidation (green fluorescent intensity of C11-BODIPY 581/591) (HFF3 cells): weaker than that of the only UVA-treated cells; also recorded: significant decline of green fluorescence
intracellular GSH depletion (green fluorescence of CMF-GSH) [4]: nearly complete protection of GSH depletion; also recorded: nearly complete recovery of green fluorescence
intracellular GSH depletion (green fluorescence of CMF-GSH) (HFF-3 cells [5]): nearly complete protection of GSH depletion; also recorded: nearly complete recovery of green fluorescence
mitochondrial calcium overload (brownish red fluorescence of Rhod-2) [6]: drastic decrease in brownish red fluorescence intensity; also recorded: could effectively be suppressed
mitochondrial calcium overload (brownish red fluorescence of Rhod-2) (HFF-3 cells [7]): can prevent calcium overload in mitochondria; also recorded: could effectively be suppressed
TUNEL-positive cell population [8]: 18%
TUNEL-positive cell population (HFF-3 cells [9]): 8%
